Patent US9718790B2, “Triazine derivative and pharmaceutical composition having an analgesic activity comprising the same” (SHIONOGI & CO., LTD., priority 2010, dated 2017)

Molecular target: human P2X3 receptor (Homo sapiens (Human), UniProt P56373)
Assay: Evaluation of human P2X3 receptor inhibitory activity (Fluo-3 calcium fluorescence, FDSS 3000, ATP stimulation);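 note: stimulus was 50 nM ATP with fluorescence followed for 3 min, and the response per well was peak post-ATP fluorescence divided by the reading at measurement start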
Format: cell-based
Details: C6BU-1 cells stably expressing human P2X3 receptor

human P2X3 receptor, sequence (P56373 whole entry): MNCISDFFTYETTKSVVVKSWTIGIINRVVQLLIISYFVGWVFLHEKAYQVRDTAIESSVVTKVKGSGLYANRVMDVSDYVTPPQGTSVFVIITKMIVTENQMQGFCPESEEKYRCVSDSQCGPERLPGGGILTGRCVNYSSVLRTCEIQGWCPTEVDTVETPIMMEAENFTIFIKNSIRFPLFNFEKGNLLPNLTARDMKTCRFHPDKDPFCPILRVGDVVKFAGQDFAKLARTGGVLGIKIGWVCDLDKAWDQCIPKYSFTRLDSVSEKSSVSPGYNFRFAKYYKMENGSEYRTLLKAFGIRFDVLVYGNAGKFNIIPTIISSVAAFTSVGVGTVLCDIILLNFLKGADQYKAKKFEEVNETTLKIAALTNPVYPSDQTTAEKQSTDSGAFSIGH

Compound | IC50
Cc1ccc(Cn2c(=O)n(CCC(=O)O)c(=O)[nH]/c2=N\c2ccc3c(ccc(=O)n3C)c2)cc1 [Compound I-2128] | 287 nM
CCOc1ccc2cc(/N=c3\[nH]c(=O)n(CCC(=O)O)c(=O)n3Cc3ccc(C)cc3)ccc2c1 [Compound I-2130] | 790 nM
Cc1ccc(Cn2c(=O)n(CCC(=O)O)c(=O)[nH]/c2=N\c2ccc3[nH]c(=O)sc3c2)cc1 [Compound I-2133] | 182 nM
COc1ccc2cc(/N=c3\[nH]c(=O)n(CCC(=O)O)c(=O)n3Cc3ccc(C)cc3)ccc2n1 [Compound I-2137] | 134 nM
CCn1c(=O)[nH]/c(=N\c2ccc(OC3CNC=C(C(=O)OC)C3)cc2)n(Cc2ccc(Cl)cc2)c1=O (stereo not drawn) [Compound I-2138] | 171 nM
CCn1c(=O)[nH]/c(=N\c2ccc(Oc3cccc(NC(C)=O)c3)cc2)n(Cc2ccc(Cl)cc2)c1=O [Compound I-2139] | 22 nM
Cc1ccc(Cn2c(=O)[nH]c(=O)[nH]/c2=N\c2ccc(Oc3ccnc(C(=O)O)c3)cc2)cc1 [Compound I-2140] | 7 nM
O=C(O)c1cc(Oc2ccc(/N=c3\[nH]c(=O)[nH]c(=O)n3Cc3ccc(Cl)cc3)cc2F)ccn1 [Compound I-2141] | 7 nM
COC(=O)CCCn1c(=O)[nH]/c(=N\c2ccc3nc(C)sc3c2)n(Cc2ccc(Cl)cc2)c1=O [Compound I-2142] | 6 nM
Cc1nc2ccc(/N=c3\[nH]c(=O)n(CCCC(=O)O)c(=O)n3Cc3ccc(Cl)cc3)cc2s1 [Compound I-2143] | 23 nM
CCn1c(=O)[nH]/c(=N\c2ccc(Oc3cccc(C(N)=O)n3)cc2)n(Cc2ccc(Cl)cc2)c1=O [Compound I-2145] | 8 nM
CCOC(=O)c1sc(Oc2ccc(/N=c3\[nH]c(=O)n(CC)c(=O)n3Cc3ccc(Cl)cc3)cc2)nc1C [Compound I-2147] | 14 nM
CCOC(=O)c1cnc(Oc2ccc(/N=c3\[nH]c(=O)n(CC)c(=O)n3Cc3ccc(Cl)cc3)cc2)s1 [Compound I-2148] | 2 nM
CCOC(=O)Cc1c(C)oc2ccc(/N=c3\[nH]c(=O)n(CC)c(=O)n3Cc3ccc(Cl)cc3)cc12 [Compound I-2149] | 791 nM
CCn1c(=O)[nH]/c(=N\c2ccc(Oc3ccc(C(=O)OC)o3)cc2)n(Cc2ccc(Cl)cc2)c1=O [Compound I-2150] | 44 nM
CCn1c(=O)[nH]/c(=N\c2ccc(Oc3nc(C)c(C(=O)O)s3)cc2)n(Cc2ccc(Cl)cc2)c1=O [Compound I-2151] | 12 nM
CCn1c(=O)[nH]/c(=N\c2ccc(Oc3ccc(C(=O)O)o3)cc2)n(Cc2ccc(Cl)cc2)c1=O [Compound I-2152] | 41 nM
CCn1c(=O)[nH]/c(=N\c2ccc(Oc3cncc(C(=O)OC)c3)cc2)n(Cc2ccc(Cl)cn2)c1=O [Compound I-2154] | 133 nM
COC(=O)CCCCn1c(=O)[nH]/c(=N\c2ccc3nc(C)sc3c2)n(Cc2ccc(C)cc2)c1=O [Compound I-2155] | 4 nM
CCc1nc2ccc(/N=c3\[nH]c(=O)n(CCCCC(=O)OC)c(=O)n3Cc3ccc(C)cc3)cc2s1 [Compound I-2156] | 2 nM
CCCn1c(=O)[nH]/c(=N\c2ccc(Oc3ccc(C(=O)OC)nc3)cc2)n(Cc2ccc(Cl)cc2)c1=O [Compound I-2157] | 1 nM
Cc1ccc(Cn2c(=O)n(CCCCC(=O)O)c(=O)[nH]/c2=N\c2ccc3nc(C)sc3c2)cc1 [Compound I-2158] | 29 nM
CCc1nc2ccc(/N=c3\[nH]c(=O)n(CCCCC(=O)O)c(=O)n3Cc3ccc(C)cc3)cc2s1 [Compound I-2159] | 47 nM
CCCn1c(=O)[nH]/c(=N\c2ccc(Oc3ccnc(C(=O)OC)c3)cc2)n(Cc2ccc(Cl)cc2)c1=O [Compound I-2160] | 3 nM

Compound | IC50
CCCn1c(=O)[nH]/c(=N\c2ccc(Oc3ccc(C(=O)O)nc3)cc2)n(Cc2ccc(Cl)cc2)c1=O [Compound I-2161] | 14 nM
CCCn1c(=O)[nH]/c(=N\c2ccc(Oc3ccnc(C(=O)O)c3)cc2)n(Cc2ccc(Cl)cc2)c1=O [Compound I-2162] | 6 nM
Cc1nc2ccc(/N=c3\[nH]c(=O)n(CCNCCO)c(=O)n3Cc3ccc(Cl)cc3)cc2s1 [Compound I-2163] | 54 nM
CCn1c(=O)[nH]/c(=N\c2ccc(Oc3cncc(C(=O)O)c3)cc2)n(Cc2ccc(Cl)cn2)c1=O [Compound I-2164] | 125 nM
CCn1c(=O)[nH]/c(=N\c2ccc(Oc3cc(C(N)=O)ccn3)cc2)n(Cc2ccc(Cl)cc2)c1=O [Compound I-2165] | 979 nM
CCn1c(=O)[nH]/c(=N\c2ccc(Oc3ccnc(N)c3)cc2)n(Cc2ccc(Cl)cc2)c1=O [Compound I-2166] | 10 nM
O=c1[nH]/c(=N\c2ccc3nc(C(F)(F)F)sc3c2)n(Cc2ccc(Cl)cc2)c(=O)n1CCO [Compound I-2167] | 54 nM
O=c1[nH]/c(=N\c2ccc3nc(C(F)(F)F)sc3c2)n(Cc2ccc(Cl)cc2)c(=O)n1C[C@H](O)CO [Compound I-2168] | 57 nM
CCn1c(=O)[nH]/c(=N\c2ccc3oc(C)c(CC(=O)O)c3c2)n(Cc2ccc(Cl)cc2)c1=O [Compound I-2170] | 819 nM
CCn1c(=O)[nH]/c(=N\c2ccc3oc(C)c(CCO)c3c2)n(Cc2ccc(Cl)cc2)c1=O [Compound I-2171] | 296 nM
CCn1c(=O)[nH]/c(=N\c2ccc(Oc3ccc([N+](=O)[O-])nc3)cc2)n(Cc2ccc(Cl)cc2)c1=O [Compound I-2172] | 1 nM
CCn1c(=O)[nH]/c(=N\c2ccc(Oc3cncc(C(=O)OC)c3)cc2)n(CC2CCC3(CC2)CC3)c1=O [Compound I-2173] | 12 nM
CCn1c(=O)[nH]/c(=N\c2ccc(Oc3ccnc(C(=O)OC)c3)cc2)n(CC2CCC3(CC2)CC3)c1=O [Compound I-2174] | 6 nM
CCn1c(=O)[nH]/c(=N\c2ccc(Oc3cncc(C(=O)O)c3)cc2)n(CC2CCC3(CC2)CC3)c1=O [Compound I-2175] | 13 nM
CCn1c(=O)[nH]/c(=N\c2ccc(Oc3ccnc(C(N)=O)c3)cc2)n(CC2CCC3(CC2)CC3)c1=O [Compound I-2176] | 4 nM
CCn1c(=O)[nH]/c(=N\c2ccc(Oc3ccnc(C(=O)O)c3)cc2)n(CC2CCC3(CC2)CC3)c1=O [Compound I-2177] | 14 nM
CCn1c(=O)[nH]/c(=N\c2ccc(Oc3cncc(C(N)=O)c3)cc2)n(CC2CCC3(CC2)CC3)c1=O [Compound I-2178] | 5 nM
CCn1c(=O)[nH]/c(=N\c2ccc(Oc3cncc(C#N)c3)cc2)n(CC2CCC3(CC2)CC3)c1=O [Compound I-2179] | 3 nM
CCn1c(=O)[nH]/c(=N\c2ccc(Oc3cccc(C(=O)OC)n3)cc2)n(Cc2ccc(C)cc2)c1=O [Compound I-2180] | 11 nM
CCn1c(=O)[nH]/c(=N\c2ccc(Oc3cccc(C(=O)O)n3)cc2)n(Cc2ccc(C)cc2)c1=O [Compound I-2181] | 4 nM
COC(=O)CCCCn1c(=O)[nH]/c(=N\c2ccc(OC(C)C)c(Cl)c2)n(Cc2ccc(Cl)cc2)c1=O [Compound I-2182] | 3 nM
CCc1nc2ccc(/N=c3\[nH]c(=O)n(CCCCC(=O)OC)c(=O)n3Cc3ccc(Cl)cc3)cc2s1 [Compound I-2183] | 1 nM
CC(C)Oc1ccc(/N=c2\[nH]c(=O)n(CCCCC(=O)O)c(=O)n2Cc2ccc(Cl)cc2)cc1Cl [Compound I-2184] | 10 nM
CCc1nc2ccc(/N=c3\[nH]c(=O)n(CCCCC(=O)O)c(=O)n3Cc3ccc(Cl)cc3)cc2s1 [Compound I-2185] | 15 nM
